Data reported in US7482008B1, “Human T cell reactive feline protein (TRFP) isolated from house dust and uses therefor” (Merck Patent GmbH, priority 1989, dated 2009).

Legend:
Type in all cases: cell-based, human
[1] = system: T cells from cat-allergic patients; assay: Secondary proliferation assay of T cells primed with TRFP, peptide YXZ or peptide YZX
Protocol: The human cat allergic T cell response to peptides produced as above was examined. […] Peptide YZX was cleaved with thrombin as described in Example 25. Viable cells were then purified by Ficoll-Hypaque centrifugation and cultured for 2 additional weeks in RPMI-1640/5% AB serum containing 5 units recombinant human IL-2/ml and 5 units recombinant human IL-4/ml. The resting T cells were then tested in a secondary proliferation assay using a 96 well microtiter plate to assess T cell responses to various TRFP proteins or peptides (TRFP antigens). For assay, 2×10^4 resting T cells were cultured for 3 days at 37° C. in the presence of 2×10^4 autologous Epstein-Barr virus transformed B cells (25,000 Rads) as antigen presenting cells with various concentrations of antigen in 200 μl per well. Each well then received 1 μCi tritiated thymidine for 16 hours. The counts incorporated were collected onto glass fiber filters and processed for liquid scintillation counting. The stimulation indices for responses to each antigen were then calculated as the maximum CPM in response to antigen divided by the medium control CPM. A stimulation index of 2.5 was considered to be a positive T cell response. A summary of the results of 3 such experiments (patients 522, 519, and 386 is shown in FIG. 35a, FIG. 35b and FIG. 35c). As compared to the experiments shown in FIGS. 35a and 35b in the experiment shown in […], Fel-1.4 (chain 1, amino acid residues 6-17) was substituted for Fel-1.2 (chain 1, amino acid residues 1-17) and Fel-33.3 (chain 2, amino acid residues 26-40) was substituted for Fel-18 (chain 2, amino acid residues 23-48) in order to more closely resemble the constituent amino acids of peptides X and Z. In addition, in this experiment one peptide derived from the Y-Z junction of peptide YZX (amino acid residues 50-55 from chain 1 of TRFP and amino acid residues 14-19 from chain 2 of TRFP) and one peptide derived from the Z-X junction of peptide YZX (amino acid residues 34-39 of chain 2 of TRFP and amino acid residues 7-12 of chain 1 of TRFP) were synthesized and tested. These junction peptides were produced in order to determine whether these areas of peptide YZX produce a non-native epitope when formed in the peptide.

[2] = system: T cells from cat allergic patients; assay: T cell proliferation of TRFP-primed T cells from cat allergic patients (tritiated thymidine), Example 5 Part A; details: for secondary T cell response of patient 131: FIG. 8
Protocol: Peripheral blood mononuclear cells (PBMC) were purified from 60 ml of heparinized blood from cat allergic patients. PBMC were subsequently treated as described below, although in individual cases, the length of time of cultivation with IL-2 and/or IL-4 and the specific peptides used for stimulation varied.
10 ml of PBMC from patient 131 at 10^6 /ml were cultured at 37° C. for 7 days in the presence of 5 μg purified TRFP/ml RPMI-1640 supplemented with 5% pooled human AB serum. Viable cells were purified by Ficoll-Hypaque centrifugation and cultured for three weeks at 5 units recombinant human IL-2/ml and 5 units recombinant human IL-4/ml. The resting T cells were then restimulated (secondary) with 5 μg TRFP at 2×10^5/ml in the presence of irradiated (3500 Rads) autologous PBMC at a concentration of 5×10^5/ml for three days, purified by Ficoll-Hypaque centrifugation and grown in 5 units IL-2 and 5 units IL-4/ml for two weeks. For assay, 2×10^4 resting secondary T cells were restimulated (tertiary) in the presence of 5×10^4 irradiated (3500 Rads) autologous PBMC or 2×10^4 transformed B cells (20,000 Rads) with various concentrations of allergens or their fragments in a volume of 200 microliters in a 96-well round bottom assay plates for 3 days. Each well then received 1 μCurie tritiated (methyl) thymidine for 16 hours. The counts incorporated were collected onto glass fiber filters and processed for liquid scintillation counting.
Antigens used: T cell reactive feline protein (TRFP), Hollister-Stier cat epithelium skin test reagent (CST), IPC ragweed pollen extract (pollen), and synthetic peptides derived from TRFP protein sequence (See FIGS. 6 and 7). Positive T cell proliferation is for these experiments was considered to be greater than 2.5 times the media control (T cells and antigen presenting cells alone).
Alternatively, PBMC were treated as follows: The primary stimulated cells were cultured in IL-2/IL-4 for two weeks. The resting T cells derived from this culture were tested in a secondary assay with some, but not all, of the above allergens. […] This type of epitope analysis has allowed the definition of T cell epitopes present in TRFP.

[3] = system: PBMC from cat-allergic patients; assay: IL-2, IFN-gamma and IL-4 measurements by PCR in primary 36 hour PBMC culture; details: Patient 409 primary 36 hour culture
Protocol: Peripheral blood mononuclear cells (PBMC) were purified from cat-allergic patients as described in Example 5. Five×10^6 PBMC were cultured at 2×10^6/ml for 36 hours in the presence of medium only, 20 μg purified TRFP/ml or 50 μg peptide/ml. The cells were then washed two times with phosphate buffered saline (PBS, pH 7.2) and lysed with 2 ml […] guanidinium isothiocyanate, 0.5% Sarkosyl, 5 mM sodium citrate, 0.1 M 2-mercaptoethanol, pH 7.0. The lysate was then forced through a 26 gauge needle to shear genomic DNA, and was layered onto a 2 ml cushion of 5.7 M CsCl, 0.01 M EDTA, pH 7.5 in diethylpyrocarbonate (DEPC)-treated water. The lysate was centrifuged at 35,000 RPM in a Beckman SW41 rotor for 18 hours at 20° C. The RNA pellet was resuspended in 0.4 ml TE (10 mM Tris, 1 mM EDTA), pH 7.5, 0.1% SDS, and then extracted three times with 0.5 ml phenol/0.2 ml chloroform. The RNA was then precipitated on dry ice with 2.5 volumes ice-cold ethanol, 1/10 volume 3 M sodium acetate, pH 5.2 in DEPC-treated water, rinsed once with 70% ethanol in DEPC-treated water, and dried. The RNA pellet was resuspended in 2 μl TE., pH 7.5 in DEPC-treated water.
Total cellular RNA was converted to cDNA using the Superscript kit (BRL, Bethesda, Md.). Two μl of RNA were added to one μl oligo (dT)12-18 (500 μg/ml) and 9 μl water. The sample was heated to 70° C. for 10 minutes and ice quenched. Four μl 5× buffer were added to the sample along with 2 μl 0.1 M DTT and 1 μl dNTP mix (10 mM each, dATP, dCTP, dGTP, dTTP). One μl reverse transcriptase (200U) was added and the reaction was carried out for one hour at 42° C. The reaction was terminated by incubation of the sample at 90° C. for five minutes and stored at −80° C.
Ten-fold serial dilutions of T cell cDNA in 10 mM TRIS, pH 7.5 were amplified using the standard kit and protocol recommended by Perkin Elmer-Cetus (Redwood City, Calif.). Each sample received 26.65 μl water, 5 μl ×PCR buffer, 8 μl of dNTP mix (1.25 mM each of dATP, dCTP, dGTP and dTTP), 0.1 μl alpha 32P-dCTP (3000 Ci/mmol), 0.25 μl AmpliTaq, 5 μl cDNA and 5 μl cytokine-specific 5′ and 3′ primers (20 micromolar). The primers used for most cytokines and the beta-actin control were purchased from Clontech (Redwood City, Calif.). The human IL-4 primers were purchased from Research Genetics (Huntsville, Ala.) and had the following sequences: 5′ hIL-4 primer (SEQ. ID. NO: 58):
The PCR products were extracted once with 25 μl chloroform and 25 μl of each sample were then electrophoresed on an 8% polyacrylamide gel at 250 V. The gel was dried and exposed to pre-flashed x-ray film. Several exposures of each gel were then scanned using a Shimadzu flying spot laser densitometer. Values on the linear portion of the titrations were then compared to the medium control values to obtain a stimulation index for each sample. Primers for beta-actin were included as a control for general cDNA levels in each sample. Where the medium control values are not detectable, the lowest measurable response was set at 1.00. In other experiments, levels of cytokine cDNA can be compared directly with previously amplified cytokine specific cDNAs as standards. Thus, absolute levels of particular cytokine cDNAs can be compared from one sample to another and from one experiment to another. In this experiment, IL-2, IL-4 and IFN-gamma levels were measured. As shown, in this particular cat-allergic patient, peptides such as Fel 18 generate more IL-4 than certain other TRFP-derived peptides (Fel 14 and Fel 17). This analysis will be expanded to studies of other cytokines involved in the generation of allergic responses, such as IL-5, IL-8, IL-9, TGF-beta. Samples of cDNA from each treatment can also be saved for later analysis once additional cytokines are identified and sequenced. Peptides generating a spectrum of cytokines favorable for the generation of allergic responses can be avoided for therapeutic use in the treatment of cat allergy. […]

[4] = patient 386, T cells primed with YZX
[5] = patient 522, T cells primed with YXZ
[6] = Table 2, chain #1 TRFP peptides, average SI of responding patients multiplied by percent of patients with positive response (SI >2.5)
[7] = Table 2, chain #1 TRFP peptides, average cpm with antigen divided by cpm of T cells and APC alone, responding patients
[8] = patient 522, T cells primed with native TRFP, SI 2.5 positive
[9] = Table 3, chain #2 TRFP peptides

## DVDLFLTGTPDEYVEQV [Fel 2, TRFP chain 1 amino acids 9-25]
[1]; [4]
  T cell response: respond at a similar level or better
[1]; [5]
  T cell response: respond at a similar level or better
[2]; [6]
  PI: 416
[2]; [7]
  SI: 7.3

## EITPAVKRDVDLFLTGT [Fel 1, TRFP chain 1 amino acids 1-17, amino acid 3 changed to T]
[2]
  secondary T cell response of patient 131: respond
[2]; [6]
  PI: 392
[2]; [7]
  SI: 5.6

## Fel 1-4: TRFP chain 1 amino acids 6-17 (VKRDVDLFLTGT; UniProt P30438 28-39, looked up, fragment)
[2]; [6]
  PI: 816
[2]; [7]
  SI: 9.6

## Fel 1-5: TRFP chain 1 amino acids 8-17 (RDVDLFLTGT; UniProt P30438 30-39, looked up, fragment)
[2]; [6]
  PI: 286
[2]; [7]
  SI: 5.2

## Fel 4-1: TRFP chain 1 amino acids 37-52 (NARILKNCVDAKMTEE; UniProt P30438 59-74, looked up, fragment)
[2]; [6]
  PI: 822
[2]; [7]
  SI: 9.9

## Fel 4-2: TRFP chain 1 amino acids 37-49 (NARILKNCVDAKM; UniProt P30438 59-71, looked up, fragment)
[2]; [6]
  PI: 378
[2]; [7]
  SI: 6.2

## Fel 8: TRFP chain 1 amino acids 1-30 (EICPAVKRDVDLFLTGTPDEYVEQVAQYKA; UniProt P30438 23-52, looked up, fragment)
[2]
  secondary T cell response of patient 131: respond

## Fel 14-2: TRFP chain 1 amino acids 29-42 (KALPVVLENARILK; UniProt P30438 51-64, looked up, fragment)
[1]; [4]
  T cell response: respond at a similar level or better
[1]; patient 386, T cells primed with native TRFP
  T cell response: positively respond
[1]; [5]
  T cell response: respond at a similar level or better
[1]; [8]
  T cell response: positively respond
[2]; [7]
  SI: 4.6

## Fel 14-3: TRFP chain 1 amino acids 25-36 (VAQYKALPVVLE; UniProt P30438 47-58, looked up, fragment)
[2]; [6]
  PI: 621
[2]; [7]
  SI: 6.9

## Fel 16: TRFP chain 2 amino acids 1-22 (DTMRGALLVLALLVTQALGVKM)
[2]; [9]
  PI: 283
  SI: 5.9

## Fel 17: TRFP chain 2 amino acids 12-33 (LLVTQALGVKMAETCPIFYDVF)
[1]; [4]
  T cell response: respond at a similar level or better
[1]; patient 519, cells primed with peptide YXZ
  T cell response: positive responses
[1]; [5]
  T cell response: respond at a similar level or better
[1]; [8]
  T cell response: positively respond

## Fel 32-3: TRFP chain 2 amino acids 16-24 (QALGVKMAE)
[2]; [9]
  PI: 270
  SI: 3.7

## Fel 33-1: TRFP chain 2 amino acids 26-36 (CPIFYDVFFAV)
[2]; [9]
  PI: 340
  SI: 5.4

## Fel 33-2: TRFP chain 2 amino acids 26-38 (CPIFYDVFFAVAN)
[2]; [9]
  PI: 210
  SI: 4.2

## Fel 33-3: TRFP chain 2 amino acids 26-40 (CPIFYDVFFAVANGN)
[2]; [9]
  PI: 235
  SI: 5.0

## LLLDLSLTKVNATEPERTAMKKIQDC [Fel 18, TRFP chain 2 amino acids 23-48]
[1]; [5]
  T cell response: respond at a similar level or better
[2]; [9]
  PI: 466
  SI: 6.3
[3]
  RATIO IFN/IL-4: 0.5
  RATIO IL-2/IL-4: 0.4
[3]; PCR, vs medium control
  STIMULATION INDEX IFN-γ: 5.6
  STIMULATION INDEX IL-2: 4.6
  STIMULATION INDEX IL-4: 12.0
